Data: the supplement of paper PMC10307832

Key:
Assay in all cases: relative viability (nuclei count vs DMSO), 5 days (fraction); higher = more cells survive
BX 795 + Palbociclib = compound: O=C(NCCCNc1nc(Nc2cccc(NC(=O)N3CCCC3)c2)ncc1I)c1cccs1 [BX 795] + CC(=O)c1c(C)c2cnc(Nc3ccc(N4CCNCC4)cn3)nc2n(C2CCCC2)c1=O [Palbociclib] (partner 0.5 µM)
Outline: (§1)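 Nuclei were stained with Hoechst during a one-step fixation (final 0.05% Triton X-100, 1% formaldehyde, 1 ug/ml Hoechst) carried out 5 days after dosing, then counted on 4× images. The cells, lung cancer lines in 1536-well plates, had been dosed by pin tool the day after seeding with one drug alone or a fixed anchor-drug dose plus five library-drug doses (not always all listed) in √10 steps. Relative viability is the nuclei count in treated wells divided by that in vehicle wells, and each value is the median of duplicate plates.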

BX 795 + Bortezomib = compound: O=C(NCCCNc1nc(Nc2cccc(NC(=O)N3CCCC3)c2)ncc1I)c1cccs1 [BX 795] + CC(C)C[C@H](NC(=O)[C@H](Cc1ccccc1)NC(=O)c1cnccn1)B(O)O [Bortezomib] (partner 0.002 µM)
Outline: as §1

BX 795 + Alpelisib = compound: O=C(NCCCNc1nc(Nc2cccc(NC(=O)N3CCCC3)c2)ncc1I)c1cccs1 [BX 795] + Cc1nc(NC(=O)N2CCC[C@H]2C(N)=O)sc1-c1ccnc(C(C)(C)C(F)(F)F)c1 [Alpelisib] (partner 2 µM)
Outline: as §1

BX 795 + Phenformin = compound: O=C(NCCCNc1nc(Nc2cccc(NC(=O)N3CCCC3)c2)ncc1I)c1cccs1 [BX 795] + N=C(N)NC(=N)NCCc1ccccc1 [Phenformin] (partner 250 µM)
Outline: as §1

BX 795 + Pemetrexed = compound: O=C(NCCCNc1nc(Nc2cccc(NC(=O)N3CCCC3)c2)ncc1I)c1cccs1 [BX 795] + Nc1nc2[nH]cc(CCc3ccc(C(=O)N[C@@H](CCC(=O)O)C(=O)O)cc3)c2c(=O)[nH]1 [Pemetrexed] (partner 0.2 µM)
Outline: as §1

Cell Line	relative viability (BX 795 + Palbociclib; first compound 0.04 µM)	relative viability (BX 795 + Palbociclib; first compound 0.1265 µM)	relative viability (BX 795 + Palbociclib; first compound 0.4 µM)	relative viability (BX 795 + Palbociclib; first compound 1.265 µM)	relative viability (BX 795 + Bortezomib; first compound 0.04 µM)	relative viability (BX 795 + Bortezomib; first compound 0.1265 µM)	relative viability (BX 795 + Bortezomib; first compound 0.4 µM)	relative viability (BX 795 + Bortezomib; first compound 1.265 µM)	relative viability (BX 795 + Alpelisib; first compound 0.04 µM)	relative viability (BX 795 + Alpelisib; first compound 0.1265 µM)	relative viability (BX 795 + Alpelisib; first compound 0.4 µM)	relative viability (BX 795 + Alpelisib; first compound 1.265 µM)	relative viability (BX 795 + Phenformin; first compound 0.04 µM)	relative viability (BX 795 + Phenformin; first compound 0.1265 µM)	relative viability (BX 795 + Phenformin; first compound 0.4 µM)	relative viability (BX 795 + Phenformin; first compound 1.265 µM)	relative viability (BX 795 + Pemetrexed; first compound 0.04 µM)	relative viability (BX 795 + Pemetrexed; first compound 0.1265 µM)	relative viability (BX 795 + Pemetrexed; first compound 0.4 µM)	relative viability (BX 795 + Pemetrexed; first compound 1.265 µM)
NCI-H1666	0.536	0.641	0.7	0.657	0.653	0.806	0.913	0.688	1.07	1.11	1.01	0.799	0.362	0.568	0.483	0.49	0.836	0.83	0.697	0.79
NCI-H1734	0.404	0.377	0.35	0.354	0.965	1.03	0.914	0.545	0.699	0.658	0.708	0.424	0.419	0.375	0.402	0.307	0.348	0.421	0.33	0.398
NCI-H1755	0.493	0.43	0.458	0.441	1.01	0.963	1.05	0.758	0.929	0.9	0.93	0.63	0.618	0.564	0.592	0.546	0.42	0.44	0.381	0.447
NCI-H1792	0.724	0.633	0.643	0.613	0.963	1.08	1.12	0.954	0.705	0.904	0.706	0.572	0.431	0.463	0.216	0.178	0.918		0.882	0.533
NCI-H1915	0.63	0.501	0.637	0.485	1.07	1.01	0.974	0.953	1.11	1.08	1.14	0.928	0.388	0.389	0.38	0.301	0.347	0.458	0.304	0.442
NCI-H1975	0.758	0.712	0.509	0.526	0.332	0.414	0.392	0.249	0.6	0.671	0.626	0.406	0.409	0.442	0.422	0.317	0.272	0.299	0.247	0.297
NCI-H1993	0.67	0.744	0.671	0.642	1.15	1.26	1.05	1.02	0.583	0.655	0.641	0.689	0.492	0.499	0.485	0.523	0.624	0.616	0.623	0.585
NCI-H2009	0.24	0.233	0.185	0.167	0.97	0.924	0.996	0.804	1.14	1.06	1.34	0.836	0.492	0.447	0.447	0.305	0.973	0.978	1.04	0.907
NCI-H2023	0.4	0.366	0.358	0.17	0.932	0.965	0.433	0.675	0.543	0.575	0.45	0.352	0.426	0.378	0.305	0.195	0.257	0.221	0.139	0.182
NCI-H2085	0.466	0.465	0.515	0.51	1.04	0.98	1.02	0.999	1.09	0.98	1.14	0.863	0.73	0.83	0.699	0.606	0.848	0.865	0.919	0.899
NCI-H2087	0.219	0.248	0.322	0.209	0.952	0.898	1.18	0.719	1.08	1.18	1.29	0.752	0.547	0.545	0.563	0.411	0.695	0.655	0.696	0.654
NCI-H2126	0.387	0.329	0.35	0.34	1.08	1.07	1.21	1.07	0.768	0.763	0.876	0.728	0.534	0.542	0.605	0.498	0.713	0.692	0.457	0.666
NCI-H2228	1.07	0.787	0.974	0.658	1.03	1.11	0.907	0.308	0.787	0.857	0.828	0.362	0.325	0.469	0.272	0.15	0.329	0.331	0.268	0.281
NCI-H2347	0.496	0.417	0.523	0.496	1.19	1.05	1.23	0.934	1.19	1	1.11	0.892	0.475	0.466	0.555	0.391	0.424	0.375	0.434	0.434
NCI-H2405	0.535	0.537	0.384	0.566	0.965	1.03	0.91	0.941	0.785	0.735	0.372	0.626	0.438	0.355	0.33	0.262	1.06	1.02	0.996	1.05
NCI-H3122	0.182	0.221	0.208	0.226	1.02	1.04	1.04	0.986	0.989	0.832	0.78	0.866	0.409	0.38	0.381	0.348	0.172	0.207	0.141	0.182
